Experimental data reported in publication PMC12903969, “Discovery of a Novel and Potent Kir4.1 Inhibitor as a Safe and Rapid‐Onset Antidepressant Agent in Mice” (Advanced Science, 2025).
Read-outs that look alike come from different tables or passages of the source.

How the values were obtained:
[1] = molecular target: T1, Kir4.1 (Homo sapiens, UniProt P78508); assay: Whole-cell patch clamp, Kir4.1 currents in transfected CHO-K1 cells; assay type: cell-based; settings: for inhibition at 1 µM: CHO-K1, 1 μM; for inhibition at 10 µM: CHO-K1, 10 μM; for inhibition at 0.5 µM: CHO-K1, 0.5 μM
T1 construct: host or cells: CHO-K1
T1 sequence (P78508 1-379): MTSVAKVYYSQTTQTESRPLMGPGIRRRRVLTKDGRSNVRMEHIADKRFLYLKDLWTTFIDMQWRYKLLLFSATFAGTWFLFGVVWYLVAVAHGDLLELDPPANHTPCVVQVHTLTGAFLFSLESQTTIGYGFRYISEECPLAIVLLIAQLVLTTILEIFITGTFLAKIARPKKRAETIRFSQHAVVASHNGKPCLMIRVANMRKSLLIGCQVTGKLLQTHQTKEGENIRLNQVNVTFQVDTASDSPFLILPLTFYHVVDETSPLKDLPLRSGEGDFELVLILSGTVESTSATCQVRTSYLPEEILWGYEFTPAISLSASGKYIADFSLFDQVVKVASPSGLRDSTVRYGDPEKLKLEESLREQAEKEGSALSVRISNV
Experimental: Plasmids encoding WT human potassium channels Kir1.1, Kir2.1, Kir2.2, Kir4.1, and Kir4.2 were obtained from the Beijing Genomics Institute. All point mutations were constructed using the QuickChange II Site‐Directed Mutagenesis Kit (Stratagene) and subsequently verified by sequencing.
CHO‐K1 cells were maintained in DMEM/F12 growth medium containing 10% fetal bovine serum. Plasmids encoding the target genes (3600 ng) and enhanced green fluorescent protein (400 ng) were cotransfected into cells using Lipofectamine 2000 (Invitrogen) in accordance with the manufacturer's instructions. Cells were seeded onto poly‐d‐lysine (PDL)‐coated glass coverslips 1 h prior to electrophysiological recordings. All cells were cultured under standard conditions of 5% CO2 at 37 °C.
Whole‐cell patch‐clamp recordings were obtained either in transiently transfected CHO‐K1 cells or in primary cultured astrocytes at room temperature using standard patch‐clamp techniques with an Axopatch‐700B amplifier (Axon Instruments). The signals were filtered at 2 kHz and sampled at 20 kHz using the Digidata 1440A interface (Axon Instruments). The resistance of borosilicate glass pipettes was typically 2–4 MΩ when filled with the internal solution. Drug application was facilitated using a BPS perfusion system (ALA Scientific Instruments). Macroscopic currents generated by expressed potassium channels were recorded under the voltage‐clamp conditions with an internal pipette solution composed of (in mM): 140 KCl, 5 NaCl, 1 CaCl2, 1 MgCl2, 10 HEPES, and 10 EGTA, pH 7.2 adjusted with KOH. The external solution contained (in mM): 140 NaCl, 5 KCl, 2 CaCl2, 1 MgCl2, 10 glucose, and 10 HEPES, pH 7.4 adjusted with NaOH. Currents were elicited with a hyperpolarized voltage at −120 mV from the holding potential of −80 mV, followed by a ramp voltage depolarizing to +50 mV. Astrocytic resting membrane potentials were recorded under current‐clamp conditions (I = 0 pA) using standard internal and external solutions, determined immediately after achieving whole‐cell mode.

[2] = system: MDA-MB-468 breast cancer cells; assay: Cytotoxicity test (CCK-8); assay type: cell-based; settings: Homo sapiens, MDA-MB-468, MDA-MB-468 breast cancer cells; read-out: IC50 ± SD (μM) for MDA-MB-468 Inhibition
Experimental: Cytotoxicity of all the tested compounds was determined using the cell counting kit‐8 (CCK‐8) assay kit (Beyotime, Shanghai, China). Briefly, MDA‐MB‐468 was cultured in L15 medium and plated in 96‐well plates at a density of 12,000 cells per well for 24 h at 37 °C in a 5% CO2 incubator. The tested compounds were dissolved in DMSO and diluted with culture medium (DMSO final concentration < 0.4%). Then the cells were treated with compounds (0.41, 1.23, 3.70, 11.11, 33.33, 100.00 µM) for 48 h. After treatments, removal of the supernatant liquor, 100 µL of new media diluted CCK‐8 solution (10% CCK‐8) was added into each well and incubated at 37 °C for 2 h. The absorbance of the mixture was directly measured at 450 nm. The results are presented as a percentage of the control.

[3] = +50 mV, read-out: Kir4.1 Inhibition ± SD (%) at 1 μM, +50 mV
[4] = -120 mV, read-out: Kir4.1 Inhibition ± SD (%) at 1 μM, -120 mV
[5] = +50 mV, read-out: Kir4.1 Inhibition ± SD (%) at 10 μM, +50 mV
[6] = -120 mV, read-out: Kir4.1 Inhibition ± SD (%) at 10 μM, -120 mV

**Q.** Which inhibition at 1 µM [1, 3] does the source give for `c1ccc2nc3ccc(Nc4ccnc(NCCCN5CCOCC5)n4)cc3cc2c1` [JX3209, N^4-(acridin-2-yl)-N^2-(3-morpholinopropyl)pyrimidine-2,4-diamine] here?
**A.** -0.09 ± 6.09%

**Q.** And the inhibition at 1 µM [1, 4]?
**A.** 5.58 ± 4.14%

**Q.** And the inhibition at 10 µM [1, 5]?
**A.** 85.9 ± 3.9%

**Q.** And the inhibition at 10 µM [1, 6]?
**A.** 86.4 ± 4.85%

**Q.** And the IC50 [2]?
**A.** 38.4 ± 4.21 µM

**Q.** Which inhibition at 1 µM [1, 3] does the source give for `c1ccc2c(c1)oc1ccc(Nc3ccnc(NCCCN4CCCOCC4)n3)cc12` [JX3250, N^2-(3-(1,4-oxazepan-4-yl)propyl)-N^4-(dibenzo[b,d]furan-2-yl)pyrimidine-2,4-diamine] here?
**A.** 44 ± 9.96%

**Q.** What about the inhibition at 1 µM [1, 4] of the same molecule?
**A.** 30.4 ± 8.64%

**Q.** What about the inhibition at 10 µM [1, 5] of the same molecule?
**A.** 97.4 ± 1.14%

**Q.** What about the inhibition at 10 µM [1, 6] of the same molecule?
**A.** 88.3 ± 4.59%

**Q.** And the IC50 [2]?
**A.** 12.2 ± 0.87 µM

**Q.** With `CC(C)(C)OC(=O)NCCCNc1nccc(Nc2ccc3oc4ccccc4c3c2)n1` [JX3237, tert-butyl (3-((4-(dibenzo[b,d]furan-2-ylamino)pyrimidin-2-yl)amino)propyl)carbamate] as the molecule, how does the inhibition at 1 µM [1, 3] read?
**A.** 12.5 ± 7.25%

**Q.** What about the inhibition at 1 µM [1, 4] of the same molecule?
**A.** 7.65 ± 4.73%

**Q.** What about the inhibition at 10 µM [1, 5] of the same molecule?
**A.** 89.1 ± 3.59%

**Q.** And the inhibition at 10 µM [1, 6]?
**A.** 73.8 ± 0.93%

**Q.** And the IC50 [2]?
**A.** 4.84 ± 0.06 µM

**Q.** How did the inhibition at 10 µM [1, 5] turn out when `c1ccc2cc(Nc3ccnc(NCCCN4CCOCC4)n3)ccc2c1` [JX3205, N^2-(3-morpholinopropyl)-N^4-(naphthalen-2-yl)pyrimidine-2,4-diamine] was run?
**A.** 36.5 ± 10.2%

**Q.** What about the inhibition at 10 µM [1, 6] of the same molecule?
**A.** 8.88 ± 10.2%

**Q.** What about the IC50 [2] of the same molecule?
**A.** 16.9 ± 1.65 µM

**Q.** With `c1ccc2c(c1)oc1ccc(Nc3ccnc(NCCCN4CCCCCC4)n3)cc12` [JX3249, N^2-(3-(azepan-1-yl)propyl)-N^4-(dibenzo[b,d]furan-2-yl)pyrimidine-2,4-diamine] as the molecule, how does the inhibition at 0.5 µM ([1]; +50 mV, read-out: Kir4.1 Inhibition ± SD (%) at 0.5 μM, +50 mV) read?
**A.** 56 ± 5.59%

**Q.** What about the inhibition at 0.5 µM ([1]; -120 mV, read-out: Kir4.1 Inhibition ± SD (%) at 0.5 μM, -120 mV) of the same molecule?
**A.** 46.4 ± 8.18%

**Q.** And the inhibition at 1 µM [1, 3]?
**A.** 92.4 ± 1.44%

**Q.** And the inhibition at 1 µM [1, 4]?
**A.** 82.2 ± 2.24%

**Q.** What about the inhibition at 10 µM [1, 5] of the same molecule?
**A.** 98.49 ± 0.04%

**Q.** And the inhibition at 10 µM [1, 6]?
**A.** 94.9 ± 1.88%

**Q.** And the IC50 [2]?
**A.** 5.1 ± 0.21 µM

**Q.** Which results are given for `O=C(NCCNc1nccc(Nc2ccc3oc4ccccc4c3c2)n1)N1CCOCC1` [JX3236, N-(2-((4-(dibenzo[b,d]furan-2-ylamino)pyrimidin-2-yl)amino)ethyl)morpholine-4-carboxamide]?
**A.** inhibition at 1 µM [1, 3]: 5 ± 5.21%; inhibition at 1 µM [1, 4]: -4.25 ± 7.82%; inhibition at 10 µM [1, 5]: 89.24 ± 0.5%; inhibition at 10 µM [1, 6]: 70.8 ± 2.5%; IC50 [2]: 21.9 ± 1.01 µM

**Q.** For `c1cc(Nc2ccc3[nH]ccc3c2)nc(NCCCN2CCOCC2)n1` [JX3206, N^4-(1H-indol-5-yl)-N^2-(3-morpholinopropyl)pyrimidine-2,4-diamine], which inhibition at 10 µM [1, 5] is on record?
**A.** 38.4 ± 5.37%

**Q.** What about the inhibition at 10 µM [1, 6] of the same molecule?
**A.** 25.9 ± 1.96%

**Q.** What about the IC50 [2] of the same molecule?
**A.** > 50 µM

**Q.** `c1ccc2c(c1)oc1ccc(N3CCC4(CC3)CN(CCCN3CCOCC3)C4)cc12` [JX3229, 4-(3-(7-(dibenzo[b,d]furan-2-yl)-2,7-diazaspiro[3.5]nonan-2-yl)propyl)morpholine] was tested. Which inhibition at 10 µM [1, 5] did it give?
**A.** 26.8 ± 9.64%

**Q.** And the inhibition at 10 µM [1, 6]?
**A.** 4.9 ± 7.34%

**Q.** And the IC50 [2]?
**A.** 29.5 ± 1.09 µM

**Q.** With `C1=Nc2ccccc2Oc2ccc(Nc3ccnc(NCCCN4CCOCC4)n3)cc21` [JX3214, N^4-(dibenzo[b,f][1,4]oxazepin-2-yl)-N^2-(3-morpholinopropyl)pyrimidine-2,4-diamine] as the molecule, how does the inhibition at 1 µM [1, 3] read?
**A.** 60.4 ± 6.32%

**Q.** What about the inhibition at 1 µM [1, 4] of the same molecule?
**A.** 56.6 ± 3.9%

**Q.** What about the inhibition at 10 µM [1, 5] of the same molecule?
**A.** 93.6 ± 4.14%

**Q.** What about the inhibition at 10 µM [1, 6] of the same molecule?
**A.** 94.52 ± 0.7%

**Q.** What about the IC50 [2] of the same molecule?
**A.** 4.64 ± 0.41 µM
